In brackets after ≈: the same amount, converted by molar mass. Where two headings read alike, the source gives them in different places.
Legend:
in vitro = settings: human, HepDES19 cells
[1] = test system: C. neoformans var. grubii, KN99; assay: C. neoformans growth inhibition assay (limiting dilution); format: cell-based, Cryptococcus neoformans; settings: Cryptococcus neoformans
Protocol: Cell types used for C. neoformans studies. All inhibition assays were performed with C. neoformans var. grubii, KN99 (serotype A, MAT). Two clinical strains of C. neoformans var. grubii, serotype A, were provided by Tamara Doering and Andre Spec. […] Cells were diluted to OD650 0.001 in YNB-02 02 (0.67% yeast nitrogen base, 0.2% dextrose, pH 7.0 with 50 mM MOPs)+1% DMSO prior to addition to the plates for the inhibition assays.
C. neoformans growth inhibition assays. Compounds were tested in a limiting dilution assay with a starting optical density (at 650 nm) of 0.001 in YNB-02 plus 1% DMSO. Cells plus compound were incubated in 96-well clear round bottom plates covered with a Breath-easy® membrane without shaking for 48 hours at 35° C. Before measuring cell density, plates were shaken on a microtiter plate shaker at 900 rpm for 3 minutes to resuspend cells and optical density was measured at 650 nm. […] Each assay was done in triplicate and all values are the average of two or more independent assays. The data are presented as the average cell density as a percent of DMSO-only treated cells. MICs are reported as the minimal concentration needed to inhibit 80% of C. neoformans growth relative to vehicle-treated controls.

HBV replication = HBV replication inhibition in HepDES19 cells (strand-preferential qPCR); settings: Hepatitis B virus
Protocol: Cells used for toxicity and HBV studies.
HBV replication inhibition studies. HepDES19 cells were seeded in 96-well plates at 4×10^4 cells per well in the absence of tetracycline. Test compounds in a final DMSO concentration of 1% were applied to cells 48 hours after induction of HBV replication and cells were incubated with compounds for 72 hours. Cells were washed in 200 μL of phosphate buffered saline (PBS) and lysed in 150 μL of core lysis buffer (10 mM Tris pH 7.4, 1% Tween20, 150 mM NaCl). Cells were incubated at room temperate on an orbital shaker at 350 rpm for 40 minutes. Cell lysate was transferred to a 96 well polymerase chain reaction (PCR) plate and centrifuged at 3300×g for 5 minutes. The supernatant (50 μL) from the cell lysate was transferred to a 96-well PCR plate and mixed with 20 units of micrococcal nuclease and 100 μM CaCl2. The lysate was incubated for 1 hour at 37° C., and then the nuclease was inactivated at 70° C. for ten minutes. Qiagen protease (0.005 Anson units) was added to the lysate and the mixture was incubated overnight. Qiagen protease was then inactivated at 95° C. for ten minutes.
The crude lysate was used as the template for strand-preferential quantitative polymerase chain reaction (q-PCR) analysis. Quantitative PCR was performed with 40 cycles of 95° C. for 15 s and 60° C. for 1 minute employing the Kappa Probe Force universal PCR master mix.

HSV-1 = assay: Anti-HSV-1 replication assay (Vero cells, plaque titer); format: cell-based, herpes simplex virus 1; settings: for log reduction at 0.33 µM / log reduction at 1 µM / log reduction at 5 µM: Human alphaherpesvirus 1, Vero, values separated by / are repeats; for log reduction at 0.33 µM: compound at 0.33 μM, read-out: HSV-1 suppression 0.33 μM; for log reduction at 1 µM: compound at 1 μM, read-out: HSV-1 suppression 1 μM; for log reduction at 5 µM: compound at 5 μM, read-out: HSV-1 suppression 5 μM
human RNaseH1 = target: T1, human RNaseH1 (Homo sapiens, UniProt O60930); assay: Biochemical inhibition of human RNaseH1 activity
T1 sequence (O60930 1-286): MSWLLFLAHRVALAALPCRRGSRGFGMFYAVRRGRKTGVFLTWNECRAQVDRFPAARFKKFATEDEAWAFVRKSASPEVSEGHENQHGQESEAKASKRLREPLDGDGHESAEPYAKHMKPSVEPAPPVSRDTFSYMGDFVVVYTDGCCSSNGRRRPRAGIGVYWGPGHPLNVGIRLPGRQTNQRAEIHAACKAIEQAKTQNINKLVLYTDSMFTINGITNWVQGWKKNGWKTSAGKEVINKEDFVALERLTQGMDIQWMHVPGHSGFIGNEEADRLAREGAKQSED
Protocol: Biochemical inhibition of human RNaseH1 activity. Quantitative inhibition of the human RNaseH1 in the biochemical assays was assessed using a molecular beacon assay as described previously (Edwards et al., 2017). Recombinant human RNaseH 1 (0.3 μg) was incubated with 100 nM RNA:DNA substrate, 50 mM HEPES pH 8.0, 100 mM NaCl, 2 mM Tris(2-carboxyethyl)phosphine hydrochloride (TCEP), 0.05% Tween20, 5 units of RNaseOut, test compounds (0 to 500 μM), and 5% DMSO in a 100 μL reaction volume. The substrate was formed by annealing a complementary RNA oligonucleotide to a hairpin DNA oligonucleotide to hold the hairpin DNA oligonucleotide in an open conformation. The DNA oligonucleotide has a 5′ fluorescein reporter and a 3′ black hole quencher. When the RNA is degraded from the substrate the DNA oligonucleotide closes to form a hairpin structure, decreasing in signal intensity. Reactions were initiated with 5 mM MgCl2 and fluorescence was read using a Synergy HTS multi-mode plate reader at 37° C. Alternatively, the HBV RNaseH version used was MBP-HRHgtCΔ5, a genotype C isolate which lacks the C-terminal 35 amino acids of the HBV RNaseH domain that are predicted to be unstructured. Quantitative inhibition of the human RNaseH1 in biochemical assays was assessed using a FRET-based RNaseH assay under conditions previously reported for an RNaseH molecular beacon assay (Edwards et al., 2017). […] Cleavage of the RNA strand released the fluorescein from quenching, increasing fluorescence. Reactions were monitored for 90 min at 37° C. in a plate reader and initial reaction rates were calculated. Reactions contained escalating concentrations of the compounds.

[2] = CC50, Table 3 sulfur compounds, MTT
[3] = 48 h, Table 3 sulfur compounds, 48 h, 35° C., read-out: C. neoformans MIC80
[4] = HepDES19, read-out: HBV EC50, Table 3 sulfur compounds, HBV replication, HepDES19 cells
[5] = 48 h, Table 2 amides, 48 h, 35° C., tested 0.19 to 50 μM, read-out: C. neoformans MIC80
[6] = Table 2 amides, read-out: HuRH1 IC50
[7] = read-out: MIC80 against C. neoformans

Structure (SMILES) | CC50 at 24 h (in vitro; [2]) | MIC80 [1, 3] | EC50 (HBV replication; [4]) | log reduction at 1 µM (HSV-1; Table 3 sulfur compounds) | log reduction at 5 µM (HSV-1; Table 3 sulfur compounds) | further results
CCCCCCS(=O)(=O)c1ccc(S(=O)(=O)CCCCCC)c(O)c(=O)c1O [compound 700] | 46 µM | 50 µM (≈ 21.7 µg/mL) | 49.8 µM | 0.57 | 2.01 | log reduction at 0.33 µM (HSV-1; Table 3 sulfur compounds): 0.49; Inhibition of HSV-1 (HSV-1; in words): showed inhibition of HSV-1
Cc1cc(O)c(=O)c(O)cc1C(=O)Nc1ccccc1OCc1ccccc1 [compound 835] | – | – | – | – | – | CC50 at 24 h (in vitro; CC50 (μM), Table 2 amides, MTT): 10.3 ± 5.2 µM; MIC80 [1, 5]: 4.5 µM (≈ 1.7 µg/mL); IC50 (human RNaseH1; [6]): 725 ± 427 µM; log reduction at 5 µM (HSV-1; Table 2 amides): 5.23
CCCCSc1cccc(O)c(=O)c1O [compound 693] | 13.5 µM | 0.9 µM (≈ 0.204 µg/mL) | 47.3 µM | 0.25 | 5.64 | MIC80 [1, 7]: ≤ 1 µM
Cc1cc(O)c(=O)c(O)cc1S(=O)(=O)c1ccc(-c2ccccc2)cc1 [compound 337] | 47.4 µM | 50 µM (≈ 18.4 µg/mL) | 5.73 µM | – | – | log reduction at 0.33 µM (HSV-1; Table 3 sulfur compounds): 0.28
O=c1c(O)cccc(SCc2ccccc2)c1O [compound 702] | – | 0.56 µM (≈ 0.146 µg/mL) | 25 µM | 3.23 | 5.79 | MIC80 [1, 7]: ≤ 1 µM; IC50 (human RNaseH1; Table 3 sulfur compounds, read-out: Hu RNaseH IC50): 31.7 µM; log reduction at 0.33 µM (HSV-1; Table 3 sulfur compounds): 0.13
CC(C)S(=O)(=O)c1ccc(S(=O)(=O)C(C)C)c(O)c(=O)c1O [compound 538] | 100 µM | 50 µM (≈ 17.5 µg/mL) | 50 µM | 0.74 | 0.21 | CC50 at 24 h (in vitro; CC50): 100 µM
Cc1cc(O)c(=O)c(O)cc1C(=O)NC(CCC(=O)O)C(=O)O (stereo not shown) [compound 868] | – | – | – | – | – | CC50 at 24 h (in vitro; CC50 (μM), Table 2 amides, MTT): 100 µM; CC50 at 24 h (in vitro; CC50): 100 µM; MIC80 [1, 5]: 50 µM (≈ 16.3 µg/mL); IC50 (human RNaseH1; [6]): 27.7 ± 20.3 µM; log reduction at 1 µM (HSV-1; Table 2 amides): -0.15; log reduction at 5 µM (HSV-1; Table 2 amides): 0.0414
CS(=O)(=O)c1cccc(O)c(=O)c1O [compound 387] | – | 50 µM (≈ 10.8 µg/mL) | 0.41 µM | – | 0.02 | EC50 (HBV replication; HepDES19, read-out: EC50 against HBV replication): 0.41 µM
CC(C)Sc1cccc(O)c(=O)c1O [compound 695] | 21.1 µM | 1.6 µM (≈ 0.34 µg/mL) | 26.8 µM | -0.23 | 2.28 | –
CCCCS(=O)(=O)c1cccc(O)c(=O)c1O [compound 535] | 19.2 µM | 50 µM (≈ 12.9 µg/mL) | 2.02 µM | 0.07 | – | –
Cc1cc(O)c(=O)c(O)cc1C(=O)NCCNS(=O)(=O)c1ccc(C(F)(F)F)cc1 [compound 874] | – | – | – | – | – | CC50 at 24 h (in vitro; CC50 (μM), Table 2 amides, MTT): 17.7 ± 6.7 µM; MIC80 [1, 5]: 14 µM (≈ 6.25 µg/mL); IC50 (human RNaseH1; [6]): 52.6 µM; log reduction at 5 µM (HSV-1; Table 2 amides): -0.15
Cc1ccc(S(=O)(=O)c2cccc(O)c(=O)c2O)cc1 [compound 697] | 35.3 µM | 49 µM (≈ 14.3 µg/mL) | 49.1 µM | – | 0.01 | –

From patent US12606529B2, “Sulfur and amide tropolone inhibitors of nucleotidyl transferases and uses therefor” (Saint Louis University, priority 2019, dated 2026)
